Source: patent publication US4272437A, “Antibacterial agents, and 4-thio azetidinone intermediates” (priority 1979, dated 1981)
Converted amounts (≈) assume the structure as drawn. Like-named read-outs stand apart in the source and are kept apart here.

What was measured:
[1] = system: Str. pneumoniae A-9585; assay: MIC, tube dilution, Streptococcus pneumoniae A9585; assay type: cell-based; settings: Streptococcus pneumoniae, A9585, Str. pneumoniae A9585; overnight 37° C., Nutrient Broth; read-out: Minimum Inhibitory Concentration (M.I.C.)
Description: (§1) Representative compounds of the present invention were subjected to in vitro antibiotic screening against a variety of microorganisms.

[2] = system: Str. pyogenes A-9604; assay: MIC, tube dilution, Streptococcus pyogenes A9604; assay type: cell-based; settings: Streptococcus pyogenes, A9604, Str. pyogenes A9604; overnight 37° C., Nutrient Broth; read-out: Minimum Inhibitory Concentration (M.I.C.)
Description: as §1

[3] = system: Staph. aureus A-9537; assay: MIC, tube dilution, Staphylococcus aureus A9537; assay type: cell-based; settings: Staphylococcus aureus, A9537, Staph. aureus A9537; overnight 37° C., Nutrient Broth; read-out: Minimum Inhibitory Concentration (M.I.C.)
Description: as §1

[4] = system: Staph. aureus A-9537 and 50% serum; assay: MIC, tube dilution, Staph. aureus A9537 + 50% serum; assay type: cell-based, Staphylococcus aureus; settings: Staphylococcus aureus, overnight 37° C., read-out: Minimum Inhibitory Concentration (M.I.C.)
Description: as §1

[5] = system: Staph. aureus (Pen-Res) A-9606; assay: MIC, tube dilution, Staphylococcus aureus A9606 (Pen-Res); assay type: cell-based; settings: Staphylococcus aureus, Staph. aureus A9606 (Pen-Res); overnight 37° C.; read-out: Minimum Inhibitory Concentration (M.I.C.)
Description: as §1

[6] = system: Staph. aureus (Meth-Res) A-15097; assay: MIC, tube dilution, Staphylococcus aureus A15097 (Meth-Res); assay type: cell-based; settings: Staphylococcus aureus, overnight 37° C.
Description: as §1

[7] = system: Str. faecalis A-20688; assay: MIC, tube dilution, Streptococcus faecalis A20688; assay type: cell-based; settings: Enterococcus faecalis, A20688, Str. faecalis A20688; overnight 37° C.; read-out: Minimum Inhibitory Concentration (M.I.C.)
Description: as §1

[8] = system: E. coli A-15119; assay: MIC, tube dilution, Escherichia coli A15119; assay type: cell-based; settings: Escherichia coli, A15119, E. coli A15119; overnight 37° C.; read-out: Minimum Inhibitory Concentration (M.I.C.)
Description: as §1

[9] = system: E. coli A-20341-1; assay: MIC, tube dilution, Escherichia coli A20341-1; assay type: cell-based
Description: as §1

[10] = system: K. pneumoniae A-15130; assay: MIC, tube dilution, Klebsiella pneumoniae A15130; assay type: cell-based; settings: Klebsiella pneumoniae, A15130, K. pneumoniae A15130; overnight 37° C.; read-out: Minimum Inhibitory Concentration (M.I.C.)
Description: as §1

[11] = system: Klebsiella species A20468; assay: MIC, tube dilution, Klebsiella species A20468; assay type: cell-based; settings: Klebsiella species (K. pneumoniae) A20468; overnight 37° C.; read-out: Minimum Inhibitory Concentration (M.I.C.)
Description: as §1

[12] = system: Pr. mirabilis A-9900; assay: MIC, tube dilution, Proteus mirabilis A9900; assay type: cell-based; settings: Proteus mirabilis, A9900, Proteus mirabilis A9900; overnight 37° C.; read-out: Minimum Inhibitory Concentration (M.I.C.)
Description: as §1

[13] = system: Pr. vulgaris A-9716; assay: MIC, tube dilution, Proteus vulgaris / Proteus mirabilis A9716; assay type: cell-based, Proteus vulgaris (name changed to Proteus mirabilis); settings: Proteus vulgaris, A9716, Proteus vulgaris / Proteus mirabilis A9716; overnight 37° C.; read-out: Minimum Inhibitory Concentration (M.I.C.)
Description: as §1

[14] = system: Pr. morganii A-15153; assay: MIC, tube dilution, Proteus morganii A15153; assay type: cell-based; settings: Morganella morganii, A15153, Proteus morganii A15153; overnight 37° C.; read-out: Minimum Inhibitory Concentration (M.I.C.)
Description: as §1

[15] = system: Providencia stuartii A21205; assay: MIC, tube dilution, Providencia stuartii (Pr. rettgeri) A21205; assay type: cell-based; settings: overnight 37° C.; for MIC: Providencia stuartii, A21205, Providencia stuartii (Pr. rettgeri) A21205, read-out: Minimum Inhibitory Concentration (M.I.C.)
Description: as §1

[16] = system: Ser. marcescens A-20019; assay: MIC, tube dilution, Serratia marcescens A20019; assay type: cell-based; settings: overnight 37° C.; for MIC: Serratia marcescens, A20019, Serratia marcescens A20019, read-out: Minimum Inhibitory Concentration (M.I.C.)
Description: as §1

[17] = system: Ent. cloacae A-9659; assay: MIC, tube dilution, Enterobacter cloacae A9659; assay type: cell-based; settings: overnight 37° C.; for MIC: Enterobacter cloacae, A9659, Enterobacter cloacae A9659, read-out: Minimum Inhibitory Concentration (M.I.C.)
Description: as §1

[18] = system: Ent. cloacae A-9656; assay: MIC, tube dilution, Enterobacter cloacae A9656; assay type: cell-based; settings: overnight 37° C., read-out: Minimum Inhibitory Concentration (M.I.C.)
Description: as §1

[19] = system: Ps. aeruginosa A-9843A; assay: MIC, tube dilution, Pseudomonas aeruginosa A9843A; assay type: cell-based; settings: Pseudomonas aeruginosa, A9843A, read-out: Minimum Inhibitory Concentration (M.I.C.), Pseudomonas aeruginosa A9843A; overnight 37° C.
Description: as §1

[20] = system: Ps. aeruginosa A-21213; assay: MIC, tube dilution, Pseudomonas aeruginosa A21213; assay type: cell-based; settings: overnight 37° C., read-out: Minimum Inhibitory Concentration (M.I.C.)
Description: as §1

[21] = Staph. aureus A15097 (Meth-Res), read-out: Minimum Inhibitory Concentration (M.I.C.)
[22] = Escherichia coli, A203411, E. coli A20341-1; overnight 37° C.; read-out: Minimum Inhibitory Concentration (M.I.C.)
[23] = Enterobacter cloacae, A9656, Enterobacter cloacae A9656

Row | Compound | MIC [1] | MIC [2] | MIC [3] | MIC [4] | MIC [5] | MIC [6, 21] | MIC [7] | MIC [8] | MIC [9, 22] | MIC [10] | MIC [11] | MIC [12] | MIC [13] | MIC [14] | MIC [15] | MIC [16] | MIC [17] | MIC ([18]; Enterobacter cloacae A9656) | MIC [19] | MIC ([20]; Pseudomonas aeruginosa A21213) | also measured
1 | CC1=C(C(=O)O)N2C(=O)C(C(C)(C)O)C2S1 (stereo not shown) [Example 3, Potassium 6-(2'-Hydroxyisopropyl)-2-methylpenem-3-carboxylate] | 1 µg/mL | 4 µg/mL | 2 µg/mL | > 63 µg/mL | 4 µg/mL | 32 µg/mL | 125 µg/mL | 63 µg/mL | 63 µg/mL | 125 µg/mL | > 125 µg/mL | 63 µg/mL | 32 µg/mL | 125 µg/mL | 63 µg/mL | 63 µg/mL | 125 µg/mL | 125 µg/mL | > 125 µg/mL | > 125 µg/mL | –
2 | CCCC1=C(C(=O)O)N2C(=O)C[C@H]2S1 [Preparation 15, 2-Propylpenem-3-carboxylic Acid] | 1 µg/mL (≈ 4.69 µM) | 8 µg/mL (≈ 37.5 µM) | 1 µg/mL (≈ 4.69 µM) | > 63 µg/mL | 16 µg/mL (≈ 75 µM) | – | 63 µg/mL (≈ 295 µM) | 16 µg/mL (≈ 75 µM) | – | > 125 µg/mL | > 125 µg/mL | 16 µg/mL (≈ 75 µM) | 16 µg/mL (≈ 75 µM) | 63 µg/mL (≈ 295 µM) | 16 µg/mL (≈ 75 µM) | 63 µg/mL (≈ 295 µM) | > 125 µg/mL | 125 µg/mL (≈ 586 µM) | > 125 µg/mL | > 125 µg/mL | MIC ([6]; read-out: Minimum Inhibitory Concentration (M.I.C.), Staph. aureus A15097 (Meth-Res)): 125 µg/mL (≈ 586 µM); MIC ([9]; Escherichia coli, A203411; E. coli A20341-1; overnight 37° C.; read-out: Minimum Inhibitory Concentration (M.I.C.)): > 125 µg/mL; Minimum Inhibitory Concentration (M.I.C.) ([15]; Providencia stuartii (Pr. rettgeri) A21205): 32 µg/mL; Minimum Inhibitory Concentration (M.I.C.) ([16]; Serratia marcescens A20019): 125 µg/mL; Minimum Inhibitory Concentration (M.I.C.) ([17]; Enterobacter cloacae A9659): 125 µg/mL; MIC [18, 23]: 63 µg/mL (≈ 295 µM)
3 | O=C(O)C1=C(c2ccco2)SC2CC(=O)N12 (stereo not shown) [Preparation 13, 2-(2'-Furyl)penem-3-carboxylic Acid] | 1 µg/mL (≈ 4.22 µM) | 1 µg/mL (≈ 4.22 µM) | 1 µg/mL (≈ 4.22 µM) | > 32 µg/mL | 8 µg/mL (≈ 33.7 µM) | 16 µg/mL (≈ 67.4 µM) | 32 µg/mL (≈ 135 µM) | 8 µg/mL (≈ 33.7 µM) | > 63 µg/mL | 32 µg/mL (≈ 135 µM) | > 63 µg/mL | 4 µg/mL (≈ 16.9 µM) | 4 µg/mL (≈ 16.9 µM) | 32 µg/mL (≈ 135 µM) | 4 µg/mL (≈ 16.9 µM) | 16 µg/mL (≈ 67.4 µM) | 63 µg/mL (≈ 266 µM) | – | > 63 µg/mL | – | MIC [18, 23]: 63 µg/mL (≈ 266 µM); MIC ([20]; Pseudomonas aeruginosa, A21213, Pseudomonas aeruginosa A21213): > 63 µg/mL
